Data: BindingDB's records for patent US20240059728 (Galecto Biotech, 2024)
pKd: −log10 of the molar value.

Experiments:
Galectin-1 = Galectin-1 (Homo sapiens, UniProt P09382); test: Evaluation of Kd Values
Experimental: (§1) The affinity of Example 1-14 for galectins were determined by a fluorescence anisotropy assay where the compound was used as an inhibitor of the interaction between galectin and a fluorescein tagged saccharide probe as described S rme, P., Kahl-Knutsson, B., Huflejt, M., Nilsson, U. J., and Leffler H. (2004) Fluorescence polarization as an analytical tool to evaluate galectin-ligand interactions. Anal. Biochem. 334: 36-47, (Sarme et al., 2004) and Monovalent interactions of Galectin-1 By Salomonsson, Emma; Larumbe, Amaia; Tejler, Johan; Tullberg, Erik; Rydberg, Hanna; Sundin, Anders; Khabut, Areej; Frejd, Torbjorn; Lobsanov, Yuri D.; Rini, James M.; et al, From Biochemistry (2010), 49(44), 9518-9532, (Salomonsson et al., 2010).

Galectin-3 = Galectin-3 (Homo sapiens, UniProt P17931); test: Evaluation of Kd Values
Galectin-3, sequence (P17931 whole entry): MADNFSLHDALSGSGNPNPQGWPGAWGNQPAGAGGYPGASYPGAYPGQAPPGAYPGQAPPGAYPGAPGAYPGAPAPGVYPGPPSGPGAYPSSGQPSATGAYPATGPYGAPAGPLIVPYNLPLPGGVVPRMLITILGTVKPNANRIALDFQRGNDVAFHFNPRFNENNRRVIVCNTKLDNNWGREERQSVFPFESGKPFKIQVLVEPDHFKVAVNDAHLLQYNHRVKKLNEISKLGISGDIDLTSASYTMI
Experimental: as §1

Galectin-1, sequence (P09382 whole entry): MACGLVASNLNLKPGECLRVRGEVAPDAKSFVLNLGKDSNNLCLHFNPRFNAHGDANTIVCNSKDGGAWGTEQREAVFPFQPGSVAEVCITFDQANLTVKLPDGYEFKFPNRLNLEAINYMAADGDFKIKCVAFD

Row | pKd (Galectin-1) | pKd (Galectin-3) | SMILES
1 | 6.05 | 8.22 | OCC1O[C@@H](S[C@@H]2O[C@H](CO)C(O)C(n3cc(-c4cc(F)c(F)c(F)c4)cn3)[C@H]2O)C(O)[C@@H](n2cc(-c3cc(F)c(F)c(F)c3)cn2)[C@H]1O (some centres undefined) [US20240059728, Example 5]
2 | 6.11 | > 8.00 | OCC1O[C@@H](S[C@@H]2O[C@H](CO)C(O)C(n3cc(-c4cccc(F)c4)cn3)[C@H]2O)C(O)[C@@H](n2cc(-c3cccc(F)c3)cn2)[C@H]1O (some centres undefined) [US20240059728, Example 4]
